According to US20260015333A1, “COMPOUNDS AND METHODS FOR INHIBITION OF THE EVOLUTION OF […]” (priority 2022, published 2026):

Key:
Mfd = Mfd (Salmonella typhimurium, UniProt Q8ZQ01); assay: Binding affinity analysis by microscale thermophoresis; set-up: species or system S. typhimurium; conditions: labeled Mfd 50 nM
Description: (§1) FIGS. 2A-2D depict how ARM-1 affects Mfd's biochemical activity. FIG. 2A depicts how the kd of ARM-1 was determined using microscale thermophoresis. Data shown represent a minimum of three independent experiments. FIG. 2B depicts a NADH-coupled ATPase assay. ATP hydrolysis by Mfd was coupled to NADH oxidation. Phosphoenolpyruvate is converted to pyruvate by pyruvate kinase, transferring a phosphate group onto ADP, which is only present in the reaction following ATP hydrolysis by Mfd. Pyruvate is then converted to lactate by lactate dehydrogenase, oxidizing NADH to NAD^+. Absorbance at 340 nm by NADH is used to monitor the reaction. Data shown represent a minimum of 3 biological replicates. FIG. 2C depicts a transcription roadblock assay. A P32-labled 176 bp PCR fragment was incubated with E. coli RNAP along with saturating concentrations of ATP, GTP, and UTP. 100 nM S. typhimurium ST19 Mfd preincubated with indicated concentrations of ARM-1 was added and the reaction allowed to proceed for 6 minutes. DNA products were then resolved on a polyacrylamide gel and analyzed by phosphorimaging. […] Quantification of these gels is shown below each lane. […]
Microscale thermophoresis was performed on a Monolith (NanoTemper). […] MST experiments were performed under default settings apart from fluorescence intensity set to 100%. […]

S. typhimurium ST19 = assay: Luria-Delbruck fluctuation assay; format: cell-based; conditions: 100 μM ARM-1, plated on 80 ng/ml ciprofloxacin
Description: FIGS. 3A-3C depict how ARM-1 reduces mutation frequency in culture and during infection. FIG. 3A depicts a Luria-Delbruck fluctuation assay with ARM-1 treatment. Single colonies of WT and Δmfd S. typhimurium ST19 were used to inoculate overnight cultures with appropriate antibiotic selection. Cultures were then diluted back to OD600 0.0005 and grown to OD600 0.5 with or without 100 μM ARM-1 treatment. Samples were plated on 80 ng/ml ciprofloxacin and grown overnight, then enumerated the following day. Data shown are the result of a minimum of 50 replicates. FIG. 3B depicts the invasion and infection efficiency in the presence of ARM-1. WT S. typhimurium ST19 in mid-log phase growth was used to infect HeLa cells. Invasion was allowed to proceed for 1 hour before uninternalized bacteria were removed and fresh media applied, containing vehicle control or 31.25 μM ARM-1. At the indicated timepoints, HeLa cells were lysed using 1% Triton-H2O and intracellular bacteria serially diluted and plated on LB for CFU enumeration. FIG. 3C depicts mutation frequency post mammalian cell infection. WT and Δmfd S. typhimurium ST19 were used to infect HeLa cells as described in FIG. 3B. Following infection, intracellular bacteria were harvested and plated on 50 μg/mL 5-fluorocytosine and grown overnight. Mutants were enumerated the following morning. […]

E. coli RNAP = target: T1, E. coli RNAP (Escherichia coli, UniProt P0A7Z4+P0A800+P0A8T7+P0A8V2); assay: RNAP displacement assay, control reactions in the absence of Mfd; format: biochemical; conditions: RNAP with 12.5 μM ARM-1, no Mfd
T1 construct: purchased NEB
T1 sequence (P0A7Z4 whole entry): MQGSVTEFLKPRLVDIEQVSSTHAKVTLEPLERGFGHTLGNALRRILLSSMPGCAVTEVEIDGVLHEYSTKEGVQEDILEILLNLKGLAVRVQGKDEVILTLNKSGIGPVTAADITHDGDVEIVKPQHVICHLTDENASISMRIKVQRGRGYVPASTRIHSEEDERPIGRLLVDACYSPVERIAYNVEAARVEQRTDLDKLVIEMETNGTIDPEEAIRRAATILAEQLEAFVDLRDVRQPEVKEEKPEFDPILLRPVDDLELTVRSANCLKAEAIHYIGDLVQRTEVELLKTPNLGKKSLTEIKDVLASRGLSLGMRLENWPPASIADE
T1 sequence (P0A8V2 whole entry): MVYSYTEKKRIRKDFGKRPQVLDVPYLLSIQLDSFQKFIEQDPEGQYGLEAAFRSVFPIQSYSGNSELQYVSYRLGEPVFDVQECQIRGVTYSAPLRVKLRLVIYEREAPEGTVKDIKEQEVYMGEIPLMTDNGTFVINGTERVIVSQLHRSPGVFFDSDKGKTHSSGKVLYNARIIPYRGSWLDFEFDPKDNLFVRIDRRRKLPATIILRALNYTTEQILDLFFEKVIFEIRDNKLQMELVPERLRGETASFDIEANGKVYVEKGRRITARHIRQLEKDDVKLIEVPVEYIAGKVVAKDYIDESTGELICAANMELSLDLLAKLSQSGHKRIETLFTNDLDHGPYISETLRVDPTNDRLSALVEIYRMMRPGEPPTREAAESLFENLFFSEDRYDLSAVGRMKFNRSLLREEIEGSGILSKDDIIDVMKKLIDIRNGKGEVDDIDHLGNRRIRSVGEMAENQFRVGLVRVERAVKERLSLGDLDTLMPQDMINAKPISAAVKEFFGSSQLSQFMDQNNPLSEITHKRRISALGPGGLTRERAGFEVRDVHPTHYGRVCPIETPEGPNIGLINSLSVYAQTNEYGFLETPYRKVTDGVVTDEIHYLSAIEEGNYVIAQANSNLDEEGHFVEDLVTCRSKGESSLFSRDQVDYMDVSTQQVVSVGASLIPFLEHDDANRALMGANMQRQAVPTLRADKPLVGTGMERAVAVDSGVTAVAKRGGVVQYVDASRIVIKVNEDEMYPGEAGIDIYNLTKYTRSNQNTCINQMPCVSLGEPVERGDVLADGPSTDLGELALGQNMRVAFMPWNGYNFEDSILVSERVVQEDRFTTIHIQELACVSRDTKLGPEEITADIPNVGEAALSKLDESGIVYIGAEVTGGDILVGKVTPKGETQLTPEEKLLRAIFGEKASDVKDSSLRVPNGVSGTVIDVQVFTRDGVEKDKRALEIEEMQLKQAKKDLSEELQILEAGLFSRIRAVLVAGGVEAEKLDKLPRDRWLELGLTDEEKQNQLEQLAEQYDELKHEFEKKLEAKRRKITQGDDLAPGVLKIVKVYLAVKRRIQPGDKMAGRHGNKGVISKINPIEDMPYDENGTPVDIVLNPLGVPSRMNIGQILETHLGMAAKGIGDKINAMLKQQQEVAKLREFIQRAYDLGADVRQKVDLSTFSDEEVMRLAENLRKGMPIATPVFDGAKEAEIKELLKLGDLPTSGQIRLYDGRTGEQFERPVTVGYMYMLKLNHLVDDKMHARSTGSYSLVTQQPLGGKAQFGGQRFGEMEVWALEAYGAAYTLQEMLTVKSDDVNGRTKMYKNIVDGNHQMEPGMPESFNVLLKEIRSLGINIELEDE
T1 sequence (P0A800 2-91): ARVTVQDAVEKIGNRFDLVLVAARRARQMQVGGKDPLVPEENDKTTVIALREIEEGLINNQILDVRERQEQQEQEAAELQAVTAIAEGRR
T1 sequence (P0A8T7 whole entry): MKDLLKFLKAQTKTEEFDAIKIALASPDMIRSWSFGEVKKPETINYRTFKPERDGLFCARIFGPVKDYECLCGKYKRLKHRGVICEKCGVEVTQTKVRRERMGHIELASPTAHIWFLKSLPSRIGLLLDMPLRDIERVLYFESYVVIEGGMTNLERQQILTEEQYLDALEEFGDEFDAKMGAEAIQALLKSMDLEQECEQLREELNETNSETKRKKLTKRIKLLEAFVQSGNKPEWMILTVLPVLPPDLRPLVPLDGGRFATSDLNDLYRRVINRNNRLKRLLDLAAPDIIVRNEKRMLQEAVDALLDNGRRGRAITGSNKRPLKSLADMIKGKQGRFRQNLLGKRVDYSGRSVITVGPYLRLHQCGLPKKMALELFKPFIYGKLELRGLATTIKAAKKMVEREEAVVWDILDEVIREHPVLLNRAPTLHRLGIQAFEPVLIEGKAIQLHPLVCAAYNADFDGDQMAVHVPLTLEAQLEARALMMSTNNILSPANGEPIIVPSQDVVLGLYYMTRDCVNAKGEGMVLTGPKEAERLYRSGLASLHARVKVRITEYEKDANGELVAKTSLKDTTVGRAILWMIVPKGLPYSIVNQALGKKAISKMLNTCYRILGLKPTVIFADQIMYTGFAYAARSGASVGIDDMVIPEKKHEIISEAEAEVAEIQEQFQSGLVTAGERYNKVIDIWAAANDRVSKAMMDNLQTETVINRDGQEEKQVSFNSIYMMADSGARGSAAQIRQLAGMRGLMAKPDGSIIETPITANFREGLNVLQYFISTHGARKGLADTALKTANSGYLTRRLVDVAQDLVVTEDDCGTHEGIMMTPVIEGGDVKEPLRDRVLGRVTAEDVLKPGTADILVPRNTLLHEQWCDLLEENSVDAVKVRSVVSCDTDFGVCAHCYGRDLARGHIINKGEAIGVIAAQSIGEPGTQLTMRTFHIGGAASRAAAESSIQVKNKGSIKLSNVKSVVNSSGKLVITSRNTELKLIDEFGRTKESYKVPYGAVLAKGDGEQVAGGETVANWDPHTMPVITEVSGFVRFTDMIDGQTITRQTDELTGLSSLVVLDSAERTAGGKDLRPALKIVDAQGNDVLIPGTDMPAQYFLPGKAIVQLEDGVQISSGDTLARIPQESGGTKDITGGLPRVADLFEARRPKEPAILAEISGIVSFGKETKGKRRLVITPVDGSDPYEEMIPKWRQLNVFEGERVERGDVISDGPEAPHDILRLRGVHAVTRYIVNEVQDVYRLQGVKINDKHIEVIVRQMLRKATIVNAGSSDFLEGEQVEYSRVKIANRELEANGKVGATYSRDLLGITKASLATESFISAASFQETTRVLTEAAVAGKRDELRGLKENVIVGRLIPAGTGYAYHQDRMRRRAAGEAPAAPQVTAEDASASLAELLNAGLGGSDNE
Description: as §1
Mfd translocates along double-stranded DNA and dislodges stalled RNAP complexes. […] When quantified, a ratio of EC to IC of approximately 1 was observed, which was consistent with prior work. […]

Chain of Mfd (Q8ZQ01 entry or part of it): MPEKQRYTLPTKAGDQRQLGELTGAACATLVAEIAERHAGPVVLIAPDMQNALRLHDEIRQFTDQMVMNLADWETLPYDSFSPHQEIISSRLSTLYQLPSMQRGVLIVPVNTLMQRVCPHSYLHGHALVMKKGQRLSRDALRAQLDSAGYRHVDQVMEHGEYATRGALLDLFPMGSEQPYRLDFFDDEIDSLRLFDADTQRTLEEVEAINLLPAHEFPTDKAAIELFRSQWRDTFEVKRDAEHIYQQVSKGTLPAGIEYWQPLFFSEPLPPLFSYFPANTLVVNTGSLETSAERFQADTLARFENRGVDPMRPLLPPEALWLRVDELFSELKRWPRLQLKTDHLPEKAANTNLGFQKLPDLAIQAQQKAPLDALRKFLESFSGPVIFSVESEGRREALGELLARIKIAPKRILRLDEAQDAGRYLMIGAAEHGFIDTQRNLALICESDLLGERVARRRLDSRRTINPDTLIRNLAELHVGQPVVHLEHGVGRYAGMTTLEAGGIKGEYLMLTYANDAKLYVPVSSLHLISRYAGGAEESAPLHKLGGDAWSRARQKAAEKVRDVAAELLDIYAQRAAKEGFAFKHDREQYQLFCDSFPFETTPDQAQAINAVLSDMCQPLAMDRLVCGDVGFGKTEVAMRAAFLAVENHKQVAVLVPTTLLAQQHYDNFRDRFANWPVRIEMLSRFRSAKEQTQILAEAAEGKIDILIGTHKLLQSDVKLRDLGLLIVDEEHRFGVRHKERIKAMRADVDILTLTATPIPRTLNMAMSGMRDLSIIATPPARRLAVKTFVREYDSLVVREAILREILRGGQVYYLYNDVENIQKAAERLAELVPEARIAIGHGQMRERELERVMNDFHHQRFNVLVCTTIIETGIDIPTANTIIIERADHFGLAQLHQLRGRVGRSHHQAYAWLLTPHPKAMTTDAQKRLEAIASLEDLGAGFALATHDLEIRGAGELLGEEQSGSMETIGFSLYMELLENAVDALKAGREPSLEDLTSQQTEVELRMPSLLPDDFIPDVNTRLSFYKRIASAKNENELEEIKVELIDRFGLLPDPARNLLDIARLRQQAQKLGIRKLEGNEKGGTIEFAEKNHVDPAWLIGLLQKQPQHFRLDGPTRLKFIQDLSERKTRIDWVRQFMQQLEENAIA

For `Cc1cc(Br)ccc1-c1ccc(CNCCCN(C)C)o1` [ARM-1, N^1-((5-(4-bromo-2-methylphenyl)furan-2-yl)methyl)-N^3,N^3-dimethylpropane-1,3-diamine], the Kd (Mfd) was 4.25 µM, the “reduction in WT mutation frequency” value (S. typhimurium ST19) was 3 fold and the “changes on RNAP complexes in the absence of Mfd” value (E. coli RNAP) was “did not have any detectable changes”.
